{"source": "patent US20060183202A1", "about": "(priority 2003, published 2006)", "key": {"[1]": {"system": "DOGT1 promoter (PDOGT1-GUS)", "parameters": "species or system Arabidopsis thaliana", "details": "in vivo"}, "DOGT1 mRNA expression": {"system": "DOGT1 mRNA expression", "parameters": "species or system Arabidopsis thaliana", "details": "in vivo"}, "wheat ribosomes": {"system": "wheat ribosomes", "format": "biochemical"}, "UGT73C4": {"target": "UGT73C4 (Arabidopsis thaliana, UniProt Q9ZQ97)", "sequence (Q9ZQ97 whole entry, looked up)": "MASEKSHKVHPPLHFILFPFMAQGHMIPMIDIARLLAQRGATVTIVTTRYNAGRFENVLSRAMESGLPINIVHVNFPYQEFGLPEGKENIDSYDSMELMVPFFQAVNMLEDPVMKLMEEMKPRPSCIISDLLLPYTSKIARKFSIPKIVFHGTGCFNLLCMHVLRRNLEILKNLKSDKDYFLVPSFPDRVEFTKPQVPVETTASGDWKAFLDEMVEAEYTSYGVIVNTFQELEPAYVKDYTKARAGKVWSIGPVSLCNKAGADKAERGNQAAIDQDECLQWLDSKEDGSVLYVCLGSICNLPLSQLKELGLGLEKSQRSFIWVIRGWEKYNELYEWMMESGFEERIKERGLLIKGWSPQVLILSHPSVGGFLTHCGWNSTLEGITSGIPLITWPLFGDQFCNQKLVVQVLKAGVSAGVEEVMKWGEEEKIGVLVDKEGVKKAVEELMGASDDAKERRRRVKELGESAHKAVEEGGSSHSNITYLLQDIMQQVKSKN", "format": "cell-based"}, "DOGT1 (UGT73C5)": {"target": "DOGT1 (UGT73C5) (Arabidopsis thaliana, UniProt Q9ZQ94)", "sequence (Q9ZQ94 whole entry, looked up)": "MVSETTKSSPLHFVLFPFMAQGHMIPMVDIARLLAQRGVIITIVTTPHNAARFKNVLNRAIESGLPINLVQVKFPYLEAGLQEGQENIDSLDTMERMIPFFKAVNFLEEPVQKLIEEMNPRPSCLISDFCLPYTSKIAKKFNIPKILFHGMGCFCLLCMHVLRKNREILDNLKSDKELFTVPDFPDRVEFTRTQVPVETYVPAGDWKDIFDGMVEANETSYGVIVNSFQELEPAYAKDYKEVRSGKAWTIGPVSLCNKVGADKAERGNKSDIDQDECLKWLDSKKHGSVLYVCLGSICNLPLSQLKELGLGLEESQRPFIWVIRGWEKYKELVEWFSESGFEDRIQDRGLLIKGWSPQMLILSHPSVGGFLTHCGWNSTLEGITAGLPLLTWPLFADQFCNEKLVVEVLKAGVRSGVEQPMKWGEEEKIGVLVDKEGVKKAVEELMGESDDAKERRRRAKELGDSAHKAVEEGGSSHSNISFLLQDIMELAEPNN", "format": "cell-based"}, "laboratory animals": {"system": "laboratory animals", "details": "in vivo; cited from earlier work"}, "[2]": {"system": "Saccharomyces cerevisiae strain YZGA452", "format": "cell-based"}, "[3]": {"system": "A. thaliana wild-type Col-0", "details": "in vivo"}, "coleoptile elongation": {"system": "coleoptile elongation", "details": "in vivo; cited from earlier work"}}}
{"molecule": "O=C(O)c1ccccc1O", "note": "[SA, salicylic acid]", "values": [{"measurement": "induction of PDOGT1-GUS reporter expression", "setting": "[1]", "result": "No induction"}, {"measurement": "induction of DOGT1 transcript (RT-PCR)", "setting": "DOGT1 mRNA expression", "result": "rather weakly"}]}
{"molecule": "CC1=CC2OC3C(O[C@@H]4O[C@H](CO)[C@@H](O)[C@H](O)[C@H]4O)CC(C)(C34CO4)C2(CO)C(O)C1=O", "note": "(stereo partly drawn) [DON-3-glucoside, 3-β-D-Glucopyranosyl-4-deoxynivalenol]", "values": [{"measurement": "inhibition of luciferase activity", "setting": "wheat ribosomes; 20 µM", "result": 8, "unit": "%"}]}
{"molecule": "CC1=C[C@H]2O[C@@H]3[C@H](O)[C@@H](O)[C@](C)([C@@]2(CO)[C@H](O)C1=O)[C@]31CO1", "note": "[NIV, nivalenol]", "values": [{"measurement": "resistance to the toxin conferred by UGT73C4 expression (detoxification)", "setting": "UGT73C4", "result": "failed to confer resistance"}, {"measurement": "resistance to the toxin conferred by DOGT1 expression (detoxification)", "setting": "DOGT1 (UGT73C5)", "result": "lack of activity"}, {"measurement": "toxicity compared with DON in animal systems", "setting": "laboratory animals", "result": "higher toxicity"}]}
{"molecule": "diacetoxyscirpenol [DAS]", "values": [{"measurement": "resistance to the toxin conferred by UGT73C4 expression (detoxification)", "setting": "UGT73C4", "result": "failed to confer resistance"}]}
{"molecule": "CC/C=C\\C[C@H]1C(=O)CC[C@@H]1CC(=O)O", "note": "[JA, jasmonic acid]", "values": [{"measurement": "induction of PDOGT1-GUS reporter expression", "setting": "[1]", "result": "No induction"}, {"measurement": "induction of DOGT1 transcript (RT-PCR)", "setting": "DOGT1 mRNA expression", "result": "weak induction"}]}
{"molecule": "CC1=C[C@H]2O[C@@H]3[C@H](O)C[C@](C)([C@@]2(CO)[C@H](O)C1=O)[C@]31CO1", "note": "[DON, deoxynivalenol]", "values": [{"measurement": "luminescence remaining (luciferase activity of control)", "setting": "wheat ribosomes", "result": 3.1, "unit": "%"}, {"measurement": "reporter enzyme (luciferase) activity compared to the control (100%)", "setting": "wheat ribosomes", "result": 36.8, "unit": "%"}, {"measurement": "concentration sufficient to completely inhibit growth of yeast", "setting": "[2]", "result": 180, "unit": "ppm"}, {"measurement": "resistance to the toxin conferred by UGT73C4 expression (detoxification)", "setting": "UGT73C4", "result": "had the ability to detoxify"}, {"measurement": "resistance to the toxin conferred by DOGT1 expression (detoxification)", "setting": "DOGT1 (UGT73C5)", "result": "protects against"}, {"measurement": "induction of PDOGT1-GUS reporter expression", "setting": "[1]", "result": "induce"}, {"measurement": "induction of DOGT1 transcript (RT-PCR)", "setting": "DOGT1 mRNA expression", "result": "DON inducible expression"}, {"measurement": "main phytotoxic effect on wild-type plants", "setting": "[3]", "result": "slow germination"}]}
{"molecule": "Acetyl-DON [ADON]", "values": [{"measurement": "overall toxicity compared with the non-acetylated form (DON)", "setting": "coleoptile elongation", "result": "equivalent"}]}
{"molecule": "C/C=C\\C(=O)O[C@@H]1C[C@H]2O[C@@H]3C=C(C)C(=O)C[C@]3(C)[C@]1(C)[C@]21CO1", "note": "[TTC, trichothecin]", "values": [{"measurement": "resistance to the toxin conferred by UGT73C4 expression (detoxification)", "setting": "UGT73C4", "result": "failed to confer resistance"}]}
{"molecule": "CC(=O)O[C@@H]1C[C@]2(C)[C@@]3(CO)[C@H](O)C(=O)C(C)=C[C@H]3O[C@H]1[C@@]21CO1", "note": "[3-ADON, 3-acetyl-deoxynivalenol]", "values": [{"measurement": "resistance to the toxin conferred by UGT73C4 expression (detoxification)", "setting": "UGT73C4", "result": "failed to confer resistance"}, {"measurement": "resistance to the toxin conferred by DOGT1 expression (detoxification)", "setting": "DOGT1 (UGT73C5)", "result": "inability to confer resistance"}, {"measurement": "fold less toxic than DON to laboratory animals", "setting": "laboratory animals", "result": "about 2 fold"}]}
{"molecule": "veruccarin A [VA]", "values": [{"measurement": "resistance to the toxin conferred by UGT73C4 expression (detoxification)", "setting": "UGT73C4", "result": "failed to confer resistance"}]}
{"molecule": "CC(=O)OC[C@]12C[C@H](OC(=O)CC(C)C)C(C)=C[C@H]1O[C@@H]1[C@H](O)[C@@H](O)[C@@]2(C)[C@]12CO2", "note": "[HT-2-toxin, HT-2 toxin]", "values": [{"measurement": "resistance to the toxin conferred by UGT73C4 expression (detoxification)", "setting": "UGT73C4", "result": "failed to confer resistance"}]}
{"molecule": "CC(=O)OC[C@]12[C@H](O)C(=O)C(C)=C[C@H]1O[C@@H]1[C@H](O)C[C@@]2(C)[C@]12CO2", "note": "[15-ADON, 15-acetyl-deoxynivalenol]", "values": [{"measurement": "resistance to the toxin conferred by UGT73C4 expression (detoxification)", "setting": "UGT73C4", "result": "had the ability to detoxify"}, {"measurement": "resistance to the toxin conferred by DOGT1 expression (detoxification)", "setting": "DOGT1 (UGT73C5)", "result": "protection"}]}
